Measurements: patent US10137130B2, “Methods of treatment of malignancies” (Celgene Corporation, priority 2016, dated 2018)

Key:
[1] = system: rrAML with an IDH2 mutation; test: FLT3 mutation status and Compound 1 response in rrAML patients of the Example 1 trial (FoundationOne Heme panel, LabPMM PCR); format: in vivo, human
Experimental: A subset of the clinical samples from the trial described in Example 1 were analyzed at screening. Sample types included bone marrow, peripheral blood and mononuclear cells isolated from bone marrow or peripheral blood. DNAs were extracted from these samples and sequenced at Foundation Medicine (Heme Panel, see http://foundationone.com/learn.php) using next generation sequencing technique.
Overall response rate (ORR), the primary efficacy endpoint, is defined as the rate of responders including complete remission (CR), CR with incomplete platelet recovery (CRp), marrow CR (mCR) (morphologic leukemia-free state [MLFS] for subjects with AML), CR with incomplete hematologic recovery (CRi), and partial remission (PR). Other measures of clinical activity including complete remission rate (CRR), duration of remission/response, event-free survival, overall survival, and time to remission/response will be summarized.
FoundationOne Heme panel analysis was performed on 100 screening samples from rrAML patients in the trial described in Example 1. Sample types included peripheral blood and bone marrow.
Therefore, the lower frequency reported in the above study is likely due to lack of recruitment of patients with FLT3-ITD mutations.
Tables 8 provides a contingency table indicating lack of statistical significance for lower ORR observed in efficacy evaluable patients presenting with FLT3-ITD and Table 9 provides a contingency table indicating statistical significance of lower ORR seen in patients presenting with either FLT3-ITD or FLT3 point mutation (PM).

2-HG plasma levels = test: Phase 1/2 study AG221-C-001: pharmacodynamic response (2-HG plasma levels); format: in vivo, human
Experimental: 2HG can be detected in a sample by the methods of PCT Publication No. WO 2011/050210 and US Publication No. US2012/0121515 hereby incorporated by reference in their entirety, or by analogous methods. In an exemplary method, 2HG can be detected in a sample by LC/MS. The sample is mixed 80:20 with methanol, and centrifuged at 3,000 rpm for 20 minutes at 4 degrees Celsius. The resulting supernatant can be collected and stored at −80 degrees Celsius prior to LC-MS/MS to assess 2-hydroxyglutarate levels. A variety of different liquid chromatography (LC) separation methods can be used. Each method can be coupled by negative electrospray ionization (ESI, −3.0 kV) to triple-quadrupole mass spectrometers operating in multiple reaction monitoring (MRM) mode, with MS parameters optimized on infused metabolite standard solutions. Metabolites can be separated by reversed phase chromatography using 10 mM tributyl-amine as an ion pairing agent in the aqueous mobile phase, according to a variant of a previously reported method (Luo et al. J Chromatogr A 1147, 153-64, 2007). One method allows resolution of TCA metabolites: t=0, 50% B; t=5, 95% B; t=7, 95% B; t=8, 0% B, where B refers to an organic mobile phase of 100% methanol. Another method is specific for 2-hydroxyglutarate, running a fast linear gradient from 50%-95% B (buffers as defined above) over 5 minutes. A Synergi Hydro-RP, 100 mm×2 mm, 2.1 μm particle size (Phenomonex) can be used as the column, as described above. Metabolites can be quantified by comparison of peak areas with pure metabolite standards at known concentration. Metabolite flux studies from ^13C-glutamine can be performed as described, e.g., in Munger et al. Nat Biotechnol 26, 1179-86, 2008. […]
Subjects in the dose escalation phase and Part 1 Expansion also will undergo PK/PD assessments over a 10-hour period on C1D15, C2D1, and C4D1. […] Available bone marrow biopsy samples also will be assessed for 2-HG and α-KG levels. […]

[2] = FLT3-ITD+ efficacy evaluable patients
[3] = FLT3-ITD+/PM+ patients (either FLT3-ITD or FLT3 point mutation)
[4] = FLT3-ITD− efficacy evaluable patients

Structure (SMILES): CC(C)(O)CNc1nc(Nc2ccnc(C(F)(F)F)c2)nc(-c2cccc(C(F)(F)F)n2)n1 [COMPOUND 1, 2-methyl-1-[(4-[6-(trifluoromethyl)pyridin-2-yl]-6-{[2-(trifluoromethyl)pyridin-4-yl]amino}-1,3,5-triazin-2-yl)amino]propan-2-ol]
- No Response (number of patients) [1, 2]: 3
- Response (number of patients) [1, 2]: 0
- ORR ([1]; FLT3-ITD+ patients): 0%
- No Response (number of patients) [1, 3]: 9
- Response (number of patients) [1, 3]: 1
- ORR ([1]; FLT3-ITD+/PM+ patients (mFLT3)): 10.0%
- No Response (number of patients) [1, 4]: 38
- Response (number of patients) [1, 4]: 33
- No Response (number of patients) ([1]; FLT3-ITD−/PM− patients): 42
- Response (number of patients) ([1]; FLT3-ITD−/PM− patients): 40
- Odds ratio (response, mFLT3 vs FLT3-ITD−/PM−) ([1]; Fisher's Exact test, p = 0.039): 0.117
- Odds ratio (response, FLT3-ITD+ vs FLT3-ITD−) ([1]; Fisher's Exact test, p = 0.249): 0.164
- reduction in 2-HG plasma levels (2-HG plasma levels; by Day 1 of Cycle 2, subjects of AG221-C-001): sustained reduction
- inhibition of 2-HG plasma levels (2-HG plasma levels; most subjects with R140Q mutation, all doses): up to 98%
- exposure and inhibition of 2-HG in relation to dose (2-HG plasma levels; subjects with R172K mutation): Increasing dose is associated with higher exposure and inhibition of 2-HG
